Legend:
[1] = test system: natural binding protein extracted from bovine muscle; experiment: Saturation analysis of cyclic AMP: binding of 75Se-labelled cyclic AMP derivative to binding protein and displacement by cyclic AMP; conditions: for Percentage of 75Se-labelled cyclic AMP bound: 3 picomoles ligand, pH 7.5, 2°-4° C., 3 hours; for binding to natural binding protein extracted from bovine muscle / displacement with 3',5'-cyclic AMP from natural binding protein: qualitative
Protocol: Standard solutions of cyclic AMP containing 1, 2, 4, 8 and 16 picomoles in 50mmol tris/4mmol EDTA buffer, pH 7.5 (50μl) were pipetted into assay tubes maintained at 2°-4° C. Buffer was also added to `total` `blank` and `zero dose` tubes (150, 150 and 50μl respectively),also at 2-4' C. To each tube was added 8-methylseleno-cyclic AMP-^75 Se (3 picomoles; specific activity ca 22Ci/mmol) in 50μl of buffer.
Binding protein (ex bovine muscle) in 100μl of buffer was then added to all tubes except the `blanks`. The tubes were vortex mixed for approximately 5 seconds and then incubated at 2°-4° C. for 3 hours. A suspension of charcoal in water (100μl) was added to all tubes except the `totals` and after vortex mixing for approximately 5 seconds the tubes were immediately centrifuged to sediment the charcoal. A 200μl sample was removed from the supernate of each tube and from the `totals` and counted in a gamma counter.
(§1) Results are expressed in terms of […]

[2] = test system: Antiserum (raised against cyclic GMP-2'-succinyl-BSA); experiment: Saturation analysis of cyclic GMP: binding of 8-methylseleno-cyclic GMP-75Se to antiserum and displacement by cyclic GMP; conditions: for Percentage of 75Se-labelled cyclic GMP bound: 0.25 picomoles ligand, pH 7.5, 2°-4° C., 3 hours
Protocol: Standard solutions of cyclic GMP containing 0.25, 0.5, 1.0, 2, 4, 8 and 16,000 picomoles in 100μl of 50mmol tris/4mmol EDTA buffer, pH 7.5, were pipetted into assay tubes maintained at 2°-4° C.; the concentration of 16,000 picomoles/100μl was for determination of `non-specific binding`. 100μl of buffer was also added to a tube for determination of `zero dose` counts. To each tube was added 8-methylseleno-cyclic GMP-^75 Se (0.25 picomoles, specific activity ca 24Ci/mmol) in 50μl of buffer. Antiserum (raised against cyclic GMP-2'-succinyl-BSA) in 50μl of buffer was then added to all tubes. The tubes were briefly vortex mixed and incubated at 2°-4° C. for 3 hours. 1ml of aqueous ammonium sulphate solution (60% saturated) at 2°-4° C. was added to all tubes which, after mixing, were kept at 2°-4° C. for 5 minutes and then centrifuged. After decantation of the supernate and removal of adhering liquid the precipitates were counted in a gamma counter. 0.25 picomoles of 8-methylseleno-cyclic GMP-^75 Se (specific activity ca 24Ci/mmol) in 50μl of buffer was also counted to give `total` counts.
as §1

binding protein = experiment: Competitive inhibition of the binding of tritiated cyclic AMP to the binding protein; design: species or system bovine; conditions: for % 3H-cyclic AMP bound: tritiated cyclic AMP 0.9pmol, zero-dose binding 54.5; for Cyclic AMP equivalent: unlabelled cyclic AMP giving equal reduction in binding
Protocol: Because of the low activity of the 6-methylselenopurine riboside 3',5'-cyclic monophosphate-^75 Se its binding properties were investigated by using the selenium-75 compound as a competitive inhibitor of the binding of tritiated cyclic AMP to the binding protein.
6-methylselenopurine riboside 3',5'-cyclic monophosphate-^75 Se (specific activity 6.65m Ci/mmol) was made up in tris/EDTA buffer at concentrations of 1,156 pmoles, 105pmoles and 9.6pmoles per 50μl aliquot. In the normal assay 100μl of binding protein is incubated with tritiated cyclic AMP (0.9pmol) and unlabelled cyclic AMP (standards and unknowns). Bound and free labelled cyclic AMP are separated by absorption of free cyclic AMP on charcoal and bound activity is determined by counting a sample of the supernate. To determine the potency of the selenium analogue the zero-dose binding was first determined, ie. the percentage of tritiated cylic AMP bound in the absence of unlabelled cyclic AMP or selenium analogue. This was then compared with the binding of tritiated cylic AMP in the presence of 4 different doses of selenium analogue. From the results obtained it was possible to calculate the amounts of unlabelled cyclic AMP which would give a reduction in binding equal to that caused by the selenium analogue.

[3] = test system: antibodies raised against these cyclic nucleotides (3',5'-cyclic AMP and 3',5'-cyclic GMP); experiment: Binding of selenocysteine conjugates to antibodies raised against the cyclic nucleotides; conditions: qualitative
[4] = test system: Antiserum (raised against cyclic GMP-2'-succinyl-BSA); experiment: Saturation analysis of cyclic GMP: binding of Se-methyl-L-selenocysteine-75Se conjugate of 2'-O-succinyl cyclic GMP to antiserum and displacement by cyclic GMP; conditions: 0.59 picomoles ligand, pH 7.5, 2°-4° C., 3 hours
Protocol: Standard solutions of cyclic GMP containing 5, 10, 20, 40, 80 and 16,000 picomoles in 100μl of 50mmol tris/4mmol EDTA buffer, pH 7.5 were pipetted into assay tubes maintained at 2°-4° C.; the concentration of 16,000 picomoles/100μl was for determination of `non-specific binding`. 100μl of buffer was also added to a tube for determination of `zero dose` counts. To each tube was added Se-methyl-L-selenocysteine-^75 Se conjugate of 2' -O-succinyl cyclic GMP (0.59 picomoles; specific activity ca 16.1Ci/mmol) in 50μl of buffer. Antiserum (raised against cyclic GMP-2'-succinyl-BSA) in 50μl of buffer was then added to all tubes. The tubes were briefly vortex mixed and incubated at 2°-4° C. for 3 hours. 1ml of aqueous ammonium sulphate solution (60% saturated) at 2°-4° C. was added to all tubes which, after mixing, were kept at 2°-4° C. for 5 minutes and then centrifuged.
After decantation of the supernate and removal of adhering liquid the precipitates were counted in a gamma counter. 0.59 picomoles of the Se-methyl-L-selenocysteine-^75 Se conjugate of 2' -O-succinyl cyclic GMP in 50μl of buffer was also counted to give `total` counts.
as §1

Which “Percentage of 75Se-labelled cyclic AMP bound” value ([1]; dose of cyclic AMP 0 picomoles) does the source give for `C[75Se]c1nc2c(N)ncnc2n1[C@@H]1O[C@@H]2COP(=O)(O)O[C@H]2[C@H]1O` [I, 8-methylselenoadenosine 3', 5'-cyclic monophosphate-^75 Se] here?
The value was 38.8%.

And the “Percentage of 75Se-labelled cyclic AMP bound” value ([1]; dose of cyclic AMP 1 picomole)?
The value was 29.7%.

What about the “Percentage of 75Se-labelled cyclic AMP bound” value ([1]; dose of cyclic AMP 2 picomoles) of the same compound?
The value was 26.7%.

And the “Percentage of 75Se-labelled cyclic AMP bound” value ([1]; dose of cyclic AMP 4 picomoles)?
Its value is 21.4%.

What about the “Percentage of 75Se-labelled cyclic AMP bound” value ([1]; dose of cyclic AMP 8 picomoles) of the same compound?
The value was 16.6%.

What about the “Percentage of 75Se-labelled cyclic AMP bound” value ([1]; dose of cyclic AMP 16 picomoles) of the same compound?
Its value is 10.6%.

What about the “binding to natural binding protein extracted from bovine muscle” value [1] of the same compound?
Its value is “shown to bind”.

And the “displacement with 3',5'-cyclic AMP from natural binding protein” value [1]?
Its value is “capable of displacement”.

Which “Percentage of 75Se-labelled cyclic GMP bound” value ([2]; dose of cyclic GMP 0 picomoles) does the source give for `C[75Se]c1nc2c(=O)[nH]c(N)nc2n1[C@@H]1O[C@@H]2COP(=O)(O)O[C@H]2[C@H]1O` [II, 8-methylselenoguanosine 3',5'-cyclic monophosphate-^75 Se] here?
Its value is 45.3%.

What about the “Percentage of 75Se-labelled cyclic GMP bound” value ([2]; dose of cyclic GMP 0.25 picomoles) of the same compound?
Its value is 33.7%.

What about the “Percentage of 75Se-labelled cyclic GMP bound” value ([2]; dose of cyclic GMP 0.5 picomoles) of the same compound?
Its value is 27.8%.

What about the “Percentage of 75Se-labelled cyclic GMP bound” value ([2]; dose of cyclic GMP 1.0 picomoles) of the same compound?
Its value is 22.3%.

And the “Percentage of 75Se-labelled cyclic GMP bound” value ([2]; dose of cyclic GMP 2.0 picomoles)?
Its value is 14.0%.

And the “Percentage of 75Se-labelled cyclic GMP bound” value ([2]; dose of cyclic GMP 4.0 picomoles)?
The value was 9.3%.

And the “Percentage of 75Se-labelled cyclic GMP bound” value ([2]; dose of cyclic GMP 8.0 picomoles)?
Its value is 6.5%.

And the “binding to an antibody raised against cyclic GMP-2'-O-succinyl-BSA” value ([2]; qualitative)?
The value was “shown to bind”.

Which results are given for `C[75Se]c1ncnc2c1ncn2[C@@H]1O[C@@H]2COP(=O)(O)O[C@H]2[C@H]1O` [III, 6methylselenopurineriboside-3',5'-cyclic monophosphate-^75 Se]?
binding to natural binding protein extracted from bovine muscle [1]: shown to bind; displacement with 3',5'-cyclic AMP from natural binding protein [1]: capable of displacement; cyclic AMP causing as much displacement of tritiated cyclic AMP (binding protein; 9.6pmoles of Se analogue): 12.2 pmol; % 3H-cyclic AMP bound (binding protein; Se analogue 9.6 pmoles/50μl): 5.06%; Cyclic AMP equivalent (binding protein; Se analogue 9.6 pmoles/50μl): 12.2 pmoles/50μl; % 3H-cyclic AMP bound (binding protein; Se analogue 105 pmoles/50μl): 0.96%; Cyclic AMP equivalent (binding protein; Se analogue 105 pmoles/50μl): 69.7 pmoles/50μl; % 3H-cyclic AMP bound (binding protein; Se analogue 1,156 pmoles/50μl): 0.42%; Cyclic AMP equivalent (binding protein; Se analogue 1,156 pmoles/50μl): 161 pmoles/50μl; binding power compared with cyclic AMP (binding protein; at the concentration employed (9.6pmoles)): very similar binding powers

Which “binding to antibodies raised against these cyclic nucleotides” value [3] does the source give for `C[75Se]C[C@H](NC(=O)CCC(=O)O[C@@H]1[C@@H]2OP(=O)(O)OC[C@H]2O[C@H]1n1cnc2c(N)ncnc21)C(=O)O` [IV] here?
Its value is “bind strongly”.

How did the “binding to antibodies raised against these cyclic nucleotides” value [3] turn out when `C[75Se]C[C@H](NC(=O)CCC(=O)O[C@@H]1[C@@H]2OP(=O)(O)OC[C@H]2O[C@H]1n1cnc2c(=O)[nH]c(N)nc21)C(=O)O` [V] was run?
The value was “bind strongly”.

What about the “Percentage of 75Se-labelled cyclic GMP bound” value ([4]; dose of cyclic GMP 0 picomoles) of the same compound?
Its value is 24.5%.

What about the “Percentage of 75Se-labelled cyclic GMP bound” value ([4]; dose of cyclic GMP 5 picomoles) of the same compound?
The value was 17.3%.

What about the “Percentage of 75Se-labelled cyclic GMP bound” value ([4]; dose of cyclic GMP 10 picomoles) of the same compound?
The value was 16.7%.

What about the “Percentage of 75Se-labelled cyclic GMP bound” value ([4]; dose of cyclic GMP 20 picomoles) of the same compound?
The value was 11.8%.

What about the “Percentage of 75Se-labelled cyclic GMP bound” value ([4]; dose of cyclic GMP 40 picomoles) of the same compound?
The value was 8.3%.

What about the “Percentage of 75Se-labelled cyclic GMP bound” value ([4]; dose of cyclic GMP 80 picomoles) of the same compound?
The value was 6.1%.

Source: patent US4038033A, “Selenium labelled compounds in the saturation analysis of cyclic nucleotide” (The Radiochemical Centre, Limited, priority 1975, dated 1977)
